Assays:
Assay type in all cases: in vivo
[1] = test system: Musca domestica; experiment: Insecticidal test, Musca domestica (houseflies - adults), contact; conditions: 24 h, cotton wool/sugar, 1 day, read-out: grading of mortality, MD
In short: (§1)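 Compound dissolved in acetone, diluted with water containing 0.01% wetting agent to 500, 250 or 100 ppm. Pests on host plant or food; pests and/or medium treated. Mortality scored 1–3 days later, graded A (80–100%; 70–100% for S. exigua), B (50–79%; 50–69%), C (<50%).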

[2] = test system: Musca domestica; experiment: Knockdown test, Musca domestica (houseflies - adults); conditions: cotton wool/sugar, 4 hours, read-out: grading of knockdown, MD/KD
In short: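 Adult houseflies were exposed to the compound as aqueous acetone preparations with 0.01% Lissapol NX wetting agent, at 500, 250 or 100 ppm. Knockdown was graded A (80–100%), B (50–79%) or C (<50%).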

[3] = test system: Nilaparvata lugens; experiment: Insecticidal test, Nilaparvata lugens (brown planthopper), contact; conditions: 72 h, Cabbage leaf, 3 days, read-out: grading of mortality, NL
In short: as §1

[4] = test system: Diabrotica balteata; experiment: Insecticidal test, Diabrotica balteata (rootworm larvae), residual; conditions: 72 h, filter paper/maize seed, 3 days, read-out: grading of mortality, DB
In short: as §1

[5] = test system: Tetranychus urticae; experiment: Insecticidal/acaricidal test, Tetranychus urticae (spider mites - adult), contact; conditions: 72 h, French bean leaf, 3 days, read-out: grading of mortality, TU
In short: as §1

[6] = test system: Heliothis virescens; experiment: whole plant or invertebrate; conditions: in Gossypium hirsutum, 72 h, read-out: grading of mortality, HV
In short: as §1

[7] = test system: Spodoptera exigua; experiment: Insecticidal test, Spodoptera exigua (lesser armyworm), residual; conditions: 72 h, cotton leaf, 3 days, read-out: grading of mortality, SE
Method: The activity of the Product was determined using a variety of insect and acarine pests. The Product was used in the form of liquid preparations containing 500, 250 or 100 parts per million (ppm) by weight of the Product. The preparations were made by dissolving the Product in acetone and diluting the solutions with water containing 0.01% by weight of a wetting agent sold under the trade name "LISSAPOL" NX until the liquid preparations contained the required concentratio of the Product. "Lissapol" is a Registered Trade Mark.
The test procedure adopted with regard to each pest was basically the same and comprised supporting a number of the pests on a medium which was usually a host plant or a foodstuff on which the pests feed, and treating either or both the pests and the medium with the preparations. The mortality of the pests was then assessed at periods usually varying from one to three days after the treatment.
The results of the tests are given in Table IV for each of the Products, at the rate in parts per million given in the second column as a grading of mortality designated as A, B or C wherein A indicates 80-100% mortality or knockdown (70-100% in the case of Spodoptera exigua), B indicates 50-79% mortality or knockdown (50-69% in the case of Spodoptera exigua) and C indicates less than 50% mortality or knockdown.
In Table IV the pest organism used is designated by a letter code and the pest species, the support medium or food, and the type and duration of test is given in Table III.

[8] = test system: Myzus persicae; experiment: Insecticidal test, Myzus persicae (aphids), contact; conditions: 72 h, Chinese Cabbage leaf, 3 days, read-out: grading of mortality, MP
In short: as §1

[9] = test system: Blattella germanica; experiment: Insecticidal test, Blattella germanica (cockroach nymphs), residual; conditions: 72 h, plastic pot, 3 days, read-out: grading of mortality, BG
In short: as §1

SMILES	mortality at 500 ppm [1]	pest or weed control at 500 ppm [2]	mortality at 500 ppm [3]	mortality at 500 ppm [4]	mortality at 500 ppm [5]	mortality at 500 ppm [6]	mortality at 500 ppm [7]	mortality at 500 ppm [8]	mortality at 500 ppm [9]	also measured
OC(COCc1cccc(Oc2ccc(Cl)cc2)c1)(c1ccc(OC(F)(F)F)cc1)C(F)(F)F (centres unmarked) [Compound 135, 1,1,1-Trifluoro-2-(4-trifluoromethoxyphenyl)-3-(3-(4-chlorophenoxy)benzyloxy)propan-2-ol]	–	–	–	–	–	–	–	–	–	mortality at 250 ppm [1]: < 50%; pest or weed control at 250 ppm [2]: 80 to 100%; mortality at 250 ppm [3]: < 50%; mortality at 250 ppm [4]: < 50%; mortality at 250 ppm [5]: < 50%; mortality at 250 ppm [6]: 80 to 100%; mortality at 250 ppm [7]: 70 to 100%; mortality at 250 ppm [8]: < 50%; mortality at 250 ppm [9]: < 50%
Fc1ccc(C(Cl)(COCc2ccc(F)c(Oc3ccccc3)c2)C(F)(F)F)cc1 (centres unmarked) [Compound 51, 1,1,1-Trifluoro-2-chloro-2-(4-fluorophenyl)-3-(3-phenoxy-4-fluorobenzyloxy)propane]	–	–	–	–	–	–	–	–	–	mortality at 100 ppm [1]: < 50%; pest or weed control at 100 ppm [2]: < 50%; mortality at 100 ppm [3]: 50 to 79%; mortality at 100 ppm [4]: 80 to 100%; mortality at 100 ppm [5]: < 50%; mortality at 100 ppm [6]: 80 to 100%; mortality at 100 ppm [7]: 70 to 100%; mortality at 100 ppm [8]: < 50%; mortality at 100 ppm [9]: < 50%
FC(F)(F)C(COCc1cccc(Oc2ccccc2)c1)c1ccc2c(c1)OCO2 (centres unmarked) [Compound 31, 1,1,1-Trifluoro-2-(3,4-methylenedioxyphenyl)-3-(3-phenoxybenzyloxy)propane]	80 to 100%	80 to 100%	80 to 100%	80 to 100%	< 50%	80 to 100%	70 to 100%	80 to 100%	80 to 100%	–
OC(COCc1cccc(Oc2ccc(Cl)cc2)c1)(c1ccc2c(c1)OCO2)C(F)(F)F (centres unmarked) [Compound 129, 1,1,1-Trifluoro-2-(3,4-methylenedioxyphenyl)-3-(3-(4-chlorophenoxy)benzyloxy)propan-2-ol]	80 to 100%	80 to 100%	80 to 100%	< 50%	< 50%	50 to 79%	70 to 100%	50 to 79%	< 50%	–
Cc1ccc(C(COCc2cccc(Oc3ccccc3)c2)C(F)(F)F)cc1 (centres unmarked) [Compound 22, 1,1,1-Trifluoro-2-(4-methylphenyl)-3-(3-phenoxybenzyloxy)propane]	80 to 100%	80 to 100%	80 to 100%	80 to 100%	< 50%	50 to 79%	70 to 100%	–	80 to 100%	–
CCOc1c(F)cc(C(COCc2cccc(Oc3ccc(Cl)cc3)c2)C(F)(F)F)cc1F (racemic) [Compound 165, (RS)-1,1,1-Trifluoro-2-(3,5-difluoro-4-ethoxyphenyl)-3 (3-(4-chlorophenoxy)benzyloxy)propane]	80 to 100%	80 to 100%	80 to 100%	80 to 100%	80 to 100%	80 to 100%	70 to 100%	80 to 100%	80 to 100%	–
Fc1ccc(C(COCc2ccc(F)c(Oc3ccccc3)c2)C(F)(F)F)cc1 (centres unmarked) [Compound 18, 1,1,1-Trifluoro-2-(4-fluorophenyl)-3-(3-phenoxy-4-fluorobenzyloxy)propane]	–	–	–	–	–	–	–	–	–	mortality at 250 ppm [1]: 80 to 100%; pest or weed control at 250 ppm [2]: 80 to 100%; mortality at 250 ppm [3]: 80 to 100%; mortality at 250 ppm [4]: 80 to 100%; mortality at 250 ppm [5]: 80 to 100%; mortality at 250 ppm [6]: 80 to 100%; mortality at 250 ppm [7]: 70 to 100%; mortality at 250 ppm [8]: 80 to 100%; mortality at 250 ppm [9]: 80 to 100%
CCOc1ccc(C(COCc2ccc(F)c(Cc3ccccc3)c2)C(F)(F)F)cc1 (centres unmarked) [Compound 8]	80 to 100%	80 to 100%	80 to 100%	80 to 100%	< 50%	80 to 100%	70 to 100%	80 to 100%	80 to 100%	–
FC(F)(F)C(COCc1cccc(Oc2ccc(Cl)cc2)c1)c1ccc2c(c1)OCO2 (centres unmarked) [Compound 32, 1,1,1-Trifluoro-2-(3,4-methylenedioxyphenyl)-3-(3-(4-chlorophenoxy)benzyloxy)propane]	80 to 100%	80 to 100%	80 to 100%	80 to 100%	< 50%	80 to 100%	70 to 100%	50 to 79%	50 to 79%	–
CCOc1c(F)cc(C(COCc2ccc(F)c(Oc3ccccc3)c2)C(F)(F)F)cc1F (racemic) [Compound 166, (RS)-1,1,1-Trifluoro-2-(3,5-difluoro-4-ethoxyphenyl)-3-(3-phenoxy-4-fluorobenzyloxy)propane]	80 to 100%	80 to 100%	80 to 100%	80 to 100%	80 to 100%	80 to 100%	70 to 100%	50 to 79%	80 to 100%	–
OC(COCc1cccc(Oc2ccccc2)c1)(c1ccc2c(c1)OCO2)C(F)(F)F (centres unmarked) [Compound 128, 1,1,1-trifluoro-2-(3,4-methylenedioxyphenyl)-3-(3-phenoxybenzyloxy)propan-2-ol]	50 to 79%	< 50%	< 50%	50 to 79%	< 50%	80 to 100%	70 to 100%	< 50%	< 50%	–
FC(F)(F)C(Cl)(COCc1cccc(Oc2ccc(Cl)cc2)c1)c1ccc2c(c1)OCO2 (centres unmarked) [Compound 65, 1,1,1-Trifluoro-2-chloro-2-(3,4-methylenedioxyphenyl)-3-(3-(4-chlorophenoxy)-benzyloxy)propane]	< 50%	< 50%	< 50%	< 50%	< 50%	80 to 100%	50 to 69%	< 50%	80 to 100%	–
OC(COCc1cccc(Oc2ccccc2)c1)(c1ccc(C(F)(F)F)cc1)C(F)(F)F (centres unmarked) [Compound 137, 1,1,1-Trifluoro-2-(4-trifluoromethylphenyl)-3-(3-phenoxybenzyloxy)propan-2-ol]	< 50%	< 50%	< 50%	< 50%	< 50%	< 50%	70 to 100%	80 to 100%	< 50%	–
FC(F)(F)Oc1ccc(C(Cl)(COCc2cccc(Oc3ccccc3)n2)C(F)(F)F)cc1 (centres unmarked) [Compound 61]	–	–	–	–	–	–	–	–	–	mortality at 100 ppm [1]: 80 to 100%; pest or weed control at 100 ppm [2]: 80 to 100%; mortality at 100 ppm [3]: 80 to 100%; mortality at 100 ppm [4]: 80 to 100%; mortality at 100 ppm [5]: 80 to 100%; mortality at 100 ppm [6]: 80 to 100%; mortality at 100 ppm [7]: 70 to 100%; mortality at 100 ppm [8]: 80 to 100%; mortality at 100 ppm [9]: 80 to 100%

Reference: patent publication US5225607A, “Insecticidal ethers” (Imperial Chemical Industries PLC, priority 1985, dated 1993)
